Experimental data published in patent US7820665B2, “Imidazopyridazine inhibitors of PI3 kinase for cancer treatment” (Amgen Inc., priority 2007, dated 2010).

How the values were obtained:
[1] = biological target: T1, PI3Kα (Homo sapiens, UniProt P42336); assay: In vitro PI3 kinase enzyme assay (PI3K ATPLoss); type: biochemical; conditions: recombinant p110α/p85, residual ATP by bioluminescence
T1 construct: Full length p110 subunits of PI3K α, β and δ, N-terminally labeled with polyHis tag; polyHis (N); made in house; host or cells: Sf9 insect cells (baculovirus)
Method: Full length p110 subunits of PI3K α, β and δ, N-terminally labeled with polyHis tag, can be co-expressed with p85 with Baculo virus expression vectors in sf9 insect cells. P110/p85 heterodimers can be purified by sequential Ni-NTA, Q-HP, Superdex-100 chromatography. Purified α, β and δ isozymes can be stored at −20° C. in 20 mM Tris, pH 8, 0.2M NaCl, 50% glycerol, 5 mM DTT, 2 mM Na cholate. Truncated PI3Kγ, residues 114-1102, N-terminally labeled with polyHis tag, can be expressed with Baculo virus in Hi5 insect cells. The γ isozyme can be purified by sequential Ni-NTA, Superdex-200, Q-HP chromatography. The γ isozyme can be stored frozen at −80° C. in NaH2PO4, pH 8, 0.2M NaCl, 1% ethylene glycol, 2 mM β-mercaptoethanol.
PI3K enzyme assays (alpha, beta, delta and gamma) can be performed in 25 μL with the above final concentrations of components in white polyproplyene plates. Phosphatidyl inositol phosphoacceptor, PtdIns(4,5)P2 (e.g. P4508) can be obtained from Echelon Biosciences, Salt Lake City, Utah. The ATPase activity of the alpha and gamma isozymes may not be greatly stimulated by PtdIns(4,5)P2 under these conditions, it can be omitted from the assay of these isozymes. Test compounds can be dissolved in DMSO and diluted with three-fold serial dilutions. The compound in DMSO (1 μL) may be added per test well, and the inhibition relative to reactions containing no compound, with and without enzyme can be determined. After assay incubation at RT, the reaction can be stopped and residual ATP can be determined by addition of an equal volume of a commercial ATP bioluminescence kit (Perkin Elmer EasyLite, Perkin Elmer, Waltham, Mass.) according to the manufacturer's instructions, and detected using an Analyst GT luminometer.

[2] = tested on: phosphorylation of Akt at Serine 473 in U87 MG cells; assay: pAkt AlphaScreen (U87 Cell); type: cell-based; conditions: Homo sapiens, U-87 MG, 2 h, 2 h compound, pAkt Ser473 AlphaScreen
Method: The pAkt AlphaScreen® assay (PerkinElmer, Waltham, Mass.) determines whether there is phosphorylation of Akt at Serine 473 by recruitment of a phosphospecific antibody. This assay was performed using U87 MG cells. The U87 growth media consists of MEM (Gibco, Carlsbad, Calif.) supplemented with 10% FBS (Gibco), 1× Non-Essential Amino Acids (Gibco) and 1× Penicillin/Streptomycin/Glutamine (Gibco). The cells were maintained weekly using 0.05% Trypsin (Gibco) and replated in 150 mm TC-Treated Culture Dishes (Corning, Corning, N.Y.).
The first day of the assay, the adherent cells were trypsinized, media was added to the loose cells and cells were mixed to a homogenous mixture. 0.5 ml of the homogenous mixture was counted on the Beckman Coulter® Vi-CELL™ XR (Fullerton, Calif.). 50 frames of cells were counted and the number of viable cells was determined. The cells were then diluted to 0.25 million cells per ml, and centrifuged at 200 rcf for 5 minutes. The media was removed and the cells were reconstituted in fresh media for plating. The cells were plated at 20 μl per well on the PerkinElmer® Flexprop PLUS in Low Volume 384 Well White Tissue Culture Plates (Corning) with a final cell density of 5K cells per well. The plates were incubated overnight at 37° Celsius, 5% CO2.
On the second day, the compound plates were prepared, the cells were treated with compound and the pAkt reaction mix was added to the cell lysate. 384 well compound plates were prepared containing 1 μl of compound per well starting at 5 mM and diluted 1:2 across the row, resulting in a 22 well serial dilution. 39 μl of growth media was added to the compound plate in rows 1-22 using the PerkinElmer® FlexDrop PLUS resulting in a DMSO concentration of 2.5%. The cell plates and diluted compound plates were put onto the VELOCITY11™ VPREP™ 384 ST where the compound plate was mixed and 5 μl of serially diluted compound or controls was added to the cell plate. The final concentration of the compounds was 25 μM serially diluted to 11.9 pM in 0.5% DMSO. The cell plates were then incubated with compound for two hours at 37° Celsius, 5% CO2. After two hours, the media in the cell plates was aspirated using the BioTek® ELx405HT plate washer (Winooski, Vt.) removing the majority of media and compound without disturbing the adherent U87 cells. The following assay reagents are components of the SureFire® Akt (Ser 473) Phosphorylation 50K Point Kit (TGR BioSciences, Adelaide, Australia) and an IgG Detection Kit (PerkinElmer, Waltham, Mass.). 5 μl of 1× Lysis Buffer was added to each well using the PerkinElmer® FlexDrop PLUS. The plates were then incubated at room temperature on a shaker for ten minutes. The AlphaScreen® reaction was prepared under low light conditions (subdued or green light) including p-Akt (Ser 473) Reaction Buffer, Dilution Buffer, Activation Buffer, Acceptor Beads and Donor Beads at a ratio of 40:20:10:1:1 respectively. The AlphaScreen® reaction was added to the cell lysate at 6 μl per well using the PerkinElmer® FlexDrop PLUS. The plates were placed in a humid environment to reduce edge effects and incubated overnight at room temperature with restricted air flow in the dark.
On the final day of the experiment, the plates were read on the PerkinElmer® EnVision™ 2103 Multilable Reader using the standard AlphaScreen® readout. The POC is calculated and the data is analyzed to report the IC50 IP for pAkt at Serine 473.

T1 sequence (P42336 whole entry, species assumed): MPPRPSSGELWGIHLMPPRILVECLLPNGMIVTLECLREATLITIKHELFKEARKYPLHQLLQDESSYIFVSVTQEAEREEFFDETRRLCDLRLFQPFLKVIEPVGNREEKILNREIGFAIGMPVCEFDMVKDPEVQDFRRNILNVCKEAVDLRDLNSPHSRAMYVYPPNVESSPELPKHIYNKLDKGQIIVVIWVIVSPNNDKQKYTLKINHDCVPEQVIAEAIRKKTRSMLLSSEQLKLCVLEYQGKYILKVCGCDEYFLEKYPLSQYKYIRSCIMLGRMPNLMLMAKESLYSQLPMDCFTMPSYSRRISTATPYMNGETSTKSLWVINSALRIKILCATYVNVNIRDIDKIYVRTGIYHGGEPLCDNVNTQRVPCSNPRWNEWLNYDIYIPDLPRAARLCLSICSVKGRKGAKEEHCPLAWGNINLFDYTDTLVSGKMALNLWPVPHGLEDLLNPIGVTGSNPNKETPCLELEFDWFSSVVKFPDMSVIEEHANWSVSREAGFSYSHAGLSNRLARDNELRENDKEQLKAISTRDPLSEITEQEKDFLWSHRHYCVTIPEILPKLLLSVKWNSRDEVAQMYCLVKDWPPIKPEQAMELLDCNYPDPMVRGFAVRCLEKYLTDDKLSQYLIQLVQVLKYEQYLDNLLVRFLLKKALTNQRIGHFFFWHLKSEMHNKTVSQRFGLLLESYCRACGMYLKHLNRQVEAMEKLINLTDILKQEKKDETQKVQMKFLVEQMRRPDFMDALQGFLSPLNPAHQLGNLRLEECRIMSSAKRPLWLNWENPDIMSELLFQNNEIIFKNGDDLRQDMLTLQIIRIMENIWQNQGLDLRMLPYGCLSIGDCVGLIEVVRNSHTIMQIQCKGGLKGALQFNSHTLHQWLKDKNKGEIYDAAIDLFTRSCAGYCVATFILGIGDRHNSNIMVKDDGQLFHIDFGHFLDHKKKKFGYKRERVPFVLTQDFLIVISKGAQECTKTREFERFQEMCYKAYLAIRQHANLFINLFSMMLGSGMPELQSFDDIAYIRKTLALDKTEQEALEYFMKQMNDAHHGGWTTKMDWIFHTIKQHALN
T1 sequence (P27986 whole entry partner, species assumed): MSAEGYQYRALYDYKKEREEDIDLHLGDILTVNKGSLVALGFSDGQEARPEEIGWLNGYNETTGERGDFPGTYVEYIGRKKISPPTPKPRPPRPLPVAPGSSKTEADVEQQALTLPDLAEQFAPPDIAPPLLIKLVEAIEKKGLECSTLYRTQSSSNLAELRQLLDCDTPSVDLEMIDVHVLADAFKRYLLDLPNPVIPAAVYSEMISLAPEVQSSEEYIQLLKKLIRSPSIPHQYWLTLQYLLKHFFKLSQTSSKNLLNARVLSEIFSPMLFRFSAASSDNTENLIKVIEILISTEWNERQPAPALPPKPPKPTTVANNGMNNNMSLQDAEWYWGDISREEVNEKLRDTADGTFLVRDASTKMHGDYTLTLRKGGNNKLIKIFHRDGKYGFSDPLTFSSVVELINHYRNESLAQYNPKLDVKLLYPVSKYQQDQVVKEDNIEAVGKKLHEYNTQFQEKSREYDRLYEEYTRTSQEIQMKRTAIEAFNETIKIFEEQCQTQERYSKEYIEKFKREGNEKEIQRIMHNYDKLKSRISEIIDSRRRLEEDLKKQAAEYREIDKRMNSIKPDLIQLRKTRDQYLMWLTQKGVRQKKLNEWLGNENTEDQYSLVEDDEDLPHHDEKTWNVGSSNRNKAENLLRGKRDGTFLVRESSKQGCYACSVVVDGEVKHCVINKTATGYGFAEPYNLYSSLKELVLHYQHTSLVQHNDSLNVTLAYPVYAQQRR

Row | IC50 [1] | IC50 [2] | Structure (SMILES)
1 | 782 nM |  | CC(=O)Nc1cn2nc(-c3ccnc(F)c3)ccc2n1 [Example 3, N-(6-(2-Fluoropyridin-4-yl)imidazo[1,2-b]pyridazin-2-yl)acetamide]
2 | 982 nM |  | CC(=O)Nc1cn2nc(-c3cccc(N)c3)ccc2n1 [Example 5, N-(6-(3-Aminophenyl)imidazo[1,2-b]pyridazin-2-yl)acetamide]
3 | 96 nM |  | CC(=O)Nc1cn2nc(-c3cccc(NS(=O)(=O)c4cccc5cnccc45)c3)ccc2n1 [Example 6, N-(6-(3-(Isoquinoline-5-sulfonamido)phenyl)imidazo[1,2-b]pyridazin-2-yl)acetamide]
4 | 214 nM |  | CC(=O)Nc1cn2cc(-c3cncc(N)c3)ccc2n1 [Example 14, N-(6-(5-Aminopyridin-3-yl)H-imidazo[1,2-a]pyridin-2-yl)acetamide]
5 | 211 nM |  | CC(=O)Nc1cn2cc(-c3cncc(NCCC(C)(C)C)c3)ccc2n1 [Example 18, N-(6-(5-(3,3-Dimethylbutylamino)pyridin-3-yl)H-imidazo[1,2-a]pyridin-2-yl)acetamide]
6 | 14 nM | 115 nM | COc1cc(-c2ccc3nc(NC(C)=O)cn3n2)cnc1OC [Example 20, N-(6-(5,6-Dimethoxypyridin-3-yl)imidazo[1,2-b]pyridazin-2-yl)acetamide]
7 | 33 nM | 2180 nM | CC(=O)Nc1nc2ccc(-c3cnc(Cl)c(NS(C)(=O)=O)c3)nn2c1I [Example 21, N-(6-(6-Chloro-5-(methylsulfonamido)pyridin-3-yl)-3-iodoimidazo[1,2-b]pyridazin-2-yl)acetamide]
8 | 15 nM | 3200 nM | CC(=O)Nc1nc2ccc(-c3cnc(Cl)c(NS(C)(=O)=O)c3)nn2c1-c1cccc(F)c1 [Example 22, N-(6-(6-Chloro-5-(methylsulfonamido)pyridin-3-yl)-3-(3-fluorophenyl)imidazo[1,2-b]pyridazin-2-yl)acetamide]
9 | 102 nM | 55 nM | CS(=O)(=O)Nc1cc(-c2ccc3nc(N)c(-c4cccc(F)c4)n3n2)cnc1Cl [Example 23, N-(5-(2-Amino-3-(3-fluorophenyl)imidazo[1,2-b]pyridazin-6-yl)-2-chloropyridin-3-yl)methanesulfonamide]
10 | 93 nM | ≥ 25000 nM | CC(=O)Nc1nc2ccc(-c3cnc(Cl)c(NS(C)(=O)=O)c3)nn2c1-c1ccc(F)c(C(=O)N2CCOCC2)c1 [Example 24, N-(6-(6-chloro-5-(methylsulfonamido)pyridin-3-yl)-3-(4-fluoro-3-(morpholine-4-carbonyl)phenyl)imidazo[1,2-b]pyridazin-2-yl)acetamide]
11 | 1170 nM | ≥ 25000 nM | CS(=O)(=O)Nc1cc(-c2ccc3nc(N)c(-c4ccc(F)c(C(=O)O)c4)n3n2)cnc1Cl [Example 25, 5-(2-Amino-6-(6-chloro-5-(methylsulfonamido)pyridin-3-yl)imidazo[1,2-b]pyridazin-3-yl)-2-fluorobenzoic acid]
12 | 9 nM | 6530 nM | CC(=O)Nc1nc2ccc(-c3cnc(Cl)c(NS(C)(=O)=O)c3)nn2c1-c1ccncc1 [Example 26, N-(6-(6-Chloro-5-(methylsulfonamido)pyridin-3-yl)-3-(pyridin-4-yl)imidazo[1,2-b]pyridazin-2-yl)acetamide]
13 | 64 nM |  | Nc1cn2cc(-c3cnc(Cl)c(NS(=O)(=O)c4ccc(F)cc4)c3)ccc2n1 [Example 29, N-(5-(2-Aminoimidazo[1,2-a]pyridin-6-yl)-2-chloropyridin-3-yl)-4-fluorobenzenesulfonamide]
14 |  | 7480 nM | CC(=O)Nc1nc2ccc(-c3cnc(Cl)c(NS(=O)(=O)c4cccc(OC(F)F)c4)c3)nn2c1-c1ccncc1 [Example 44, N-(6-(6-Chloro-5-(3-(difluoromethoxy)phenylsulfonamido)pyridin-3-yl)-3-(pyridin-4-yl)imidazo[1,2-b]pyridazin-2-yl)acetamide]
15 |  | 27 nM | Nc1nc2ccc(-c3cnc(Cl)c(NS(=O)(=O)c4cccc(OC(F)F)c4)c3)nn2c1-c1ccncc1 [Example 45, N-(5-(2-Amino-3-(pyridin-4-yl)imidazo[1,2-b]pyridazin-6-yl)-2-chloropyridin-3-yl)-3-(difluoromethoxy)benzenesulfonamide]
16 |  | 5790 nM | CC(=O)Nc1nc2ccc(-c3cnc(Cl)c(NS(=O)(=O)c4cccc(OC(F)F)c4)c3)nn2c1-c1ccnc(C)c1 [Example 46, N-(6-(6-Chloro-5-(3-(difluoromethoxy)phenylsulfonamido)pyridin-3-yl)-3-(2-methylpyridin-4-yl)imidazo[1,2-b]pyridazin-2-yl)acetamide]
17 |  | 14 nM | Cc1cc(-c2c(N)nc3ccc(-c4cnc(Cl)c(NS(=O)(=O)c5cccc(OC(F)F)c5)c4)nn23)ccn1 [Example 47, N-(5-(2-Amino-3-(2-methylpyridin-4-yl)imidazo[1,2-b]pyridazin-6-yl)-2-chloropyridin-3-yl)-3-(difluoromethoxy)benzenesulfonamide]
18 |  | 18 nM | CC(=O)Nc1nc2ccc(-c3cnc(Cl)c(NS(=O)(=O)c4ccc(F)cc4)c3)nn2c1-c1ccncc1 [Example 48, N-(6-(6-Chloro-5-(4-fluorophenylsulfonamido)pyridin-3-yl)-3-(pyridin-4-yl)imidazo[1,2-b]pyridazin-2-yl)acetamide]
19 |  | 3900 nM | CC(=O)Nc1nc2ccc(-c3cnc(Cl)c(NS(=O)(=O)c4cccc(OC(F)F)c4)c3)nn2c1-c1cccnc1 [Example 49, N-(6-(6-Chloro-5-(3-(difluoromethoxy)phenylsulfonamido)pyridin-3-yl)-3-(pyridin-3-yl)imidazo[1,2-b]pyridazin-2-yl)acetamide]
20 |  | 118 nM | Nc1nc2ccc(-c3cnc(Cl)c(NS(=O)(=O)c4cccc(OC(F)F)c4)c3)nn2c1-c1cccnc1 [Example 50, N-(5-(2-Amino-3-(pyridin-3-yl)imidazo[1,2-b]pyridazin-6-yl)-2-chloropyridin-3-yl)-3-(difluoromethoxy)benzenesulfonamide]
21 |  | 439 nM | Nc1nc2ccc(-c3cnc(Cl)c(NS(=O)(=O)c4cccc(OC(F)F)c4)c3)nn2c1C1=CCNCC1 [Example 51, N-(5-(2-Amino-3-(1,2,3,6-tetrahydropyridin-4-yl)imidazo[1,2-b]pyridazin-6-yl)-2-chloropyridin-3-yl)-3-(difluoromethoxy)benzenesulfonamide]
22 | 1860 nM |  | CC(=O)Nc1cn2cc(-c3ccnc(Cl)n3)ccc2n1 [Example 53, N-(6-(2-Chloropyrimidin-4-yl)H-imidazo[1,2-a]pyridin-2-yl)acetamide]
